Data as given in the supplement of paper PMC10307832.

How the values were obtained:
Test in all cases: relative viability (nuclei count vs DMSO), 5 days (fraction); higher = more cells survive
TGX 221 + Alpelisib = compound: CC1=CN2C(=O)C=C(N=C2C(=C1)C(C)NC3=CC=CC=C3)N4CCOCC4 [TGX 221] + Cc1nc(NC(=O)N2CCC[C@H]2C(N)=O)sc1-c1ccnc(C(C)(C)C(F)(F)F)c1 [Alpelisib] (partner 2 µM)
Summary of the method: (§1)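 Cells from lung cancer lines were seeded into 1536-well plates and, one day later, dosed by pin tool. Treatments were either a single drug or a fixed dose of an anchor drug with five library-drug doses (not always all listed) in √10 steps. After 5 days, nuclei were stained in a one-step fixation (final 0.05% Triton X-100, 1% formaldehyde, 1 ug/ml Hoechst) and counted on 4× images, and relative viability is the treated-to-vehicle nuclei ratio, as the median of duplicate plates.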

TGX 221 + Trametinib = compound: CC1=CN2C(=O)C=C(N=C2C(=C1)C(C)NC3=CC=CC=C3)N4CCOCC4 [TGX 221] + CC(=O)Nc1cccc(-n2c(=O)n(C3CC3)c(=O)c3c(Nc4ccc(I)cc4F)n(C)c(=O)c(C)c32)c1 [Trametinib] (partner 0.02 µM)
Summary of the method: as §1

[1] = compound: C1=CC=C(C(=C1)C2=CC=C(C=C2)C3=CSC4=C3C(=C(C(=O)N4)C#N)O)O + CC(=O)c1c(C)c2cnc(Nc3ccc(N4CCNCC4)cn3)nc2n(C2CCCC2)c1=O [Palbociclib] (partner 0.5 µM)
Summary of the method: as §1

[2] = compound: O=C(CCCCCCNC(=O)c1cnc(N(c2ccccc2)c2ccccc2)nc1)NO [Ricolinostat] + CCNC(=O)c1noc(-c2cc(C(C)C)c(O)cc2O)c1-c1ccc(CN2CCOCC2)cc1 [Luminespib] (partner 0.01 µM)
Summary of the method: as §1

Cell Line | relative viability (TGX 221 + Alpelisib; first compound 0.08 µM) | relative viability (TGX 221 + Alpelisib; first compound 0.253 µM) | relative viability (TGX 221 + Alpelisib; first compound 0.8 µM) | relative viability (TGX 221 + Alpelisib; first compound 2.53 µM) | relative viability (TGX 221 + Alpelisib; first compound 8 µM) | relative viability (TGX 221 + Trametinib; first compound 0.08 µM) | relative viability (TGX 221 + Trametinib; first compound 0.253 µM) | relative viability (TGX 221 + Trametinib; first compound 0.8 µM) | relative viability (TGX 221 + Trametinib; first compound 2.53 µM) | relative viability (TGX 221 + Trametinib; first compound 8 µM) | relative viability ([1]; first compound 0.08 µM) | relative viability ([1]; first compound 0.253 µM) | relative viability ([1]; first compound 0.8 µM) | relative viability ([1]; first compound 2.53 µM) | relative viability ([1]; first compound 8 µM) | relative viability ([2]; first compound 0.253 µM) | relative viability ([2]; first compound 0.8 µM) | relative viability ([2]; first compound 2.53 µM) | relative viability ([2]; first compound 0.08 µM)
PC-3 [JPC-3] | 1.01 | 0.978 | 1 | 0.929 | 0.894 | 0.662 | 0.701 | 0.668 | 0.595 | 0.571 | 0.496 | 0.599 | 0.535 | 0.601 | 0.577 | 0.702 | 0.764 | 0.66 | –
PC-14 | 1.01 | 0.822 | 0.817 | 0.919 | 0.857 | 0.666 | 0.701 | 0.701 | 0.717 | 0.515 | 0.496 | 0.56 | 0.537 | 0.574 | 0.34 | 0.172 | 0.177 | 0.169 | –
RERF-LC-KJ | 0.66 | 0.713 | 0.603 | 0.644 | 0.637 | 0.686 | 0.756 | 0.83 | 0.775 | 0.753 | 1.01 | 1.18 | 1.11 | 1.29 | 1.04 | 1.07 | 1.16 | 0.809 | 1.31
SK-LU-1 | 0.948 | 0.788 | 0.903 | 0.9 | 0.731 | 0.483 | 0.672 | 0.542 | 0.356 | 0.41 | 0.35 | 0.37 | 0.378 | 0.389 | 0.355 | 0.204 | 0.212 | 0.223 | 0.199
